From publication PMC11796312, “Multifunctional, Fluorene‐Based Modulator of Cholinergic and GABAergic Neurotransmission as a Novel Drug Candidate for Palliative Treatment of Alzheimer's Disease” (Angewandte Chemie (International Ed. in English), 2024)
“Also recorded” adds a separate entry of the source. Read-outs that look alike come from different tables or passages of the source.

Experiments:
SH-SY5Y cells [1] = experiment: LC-MS determination of total MDA, SH-SY5Y; format: cell-based, human; settings: all time intervals
mGAT3 = target: T1, mGAT3 (Mus musculus, UniProt P31649); experiment: [3H]GABA uptake assay, mGAT3; format: cell-based
T1 sequence (P31649 1-602): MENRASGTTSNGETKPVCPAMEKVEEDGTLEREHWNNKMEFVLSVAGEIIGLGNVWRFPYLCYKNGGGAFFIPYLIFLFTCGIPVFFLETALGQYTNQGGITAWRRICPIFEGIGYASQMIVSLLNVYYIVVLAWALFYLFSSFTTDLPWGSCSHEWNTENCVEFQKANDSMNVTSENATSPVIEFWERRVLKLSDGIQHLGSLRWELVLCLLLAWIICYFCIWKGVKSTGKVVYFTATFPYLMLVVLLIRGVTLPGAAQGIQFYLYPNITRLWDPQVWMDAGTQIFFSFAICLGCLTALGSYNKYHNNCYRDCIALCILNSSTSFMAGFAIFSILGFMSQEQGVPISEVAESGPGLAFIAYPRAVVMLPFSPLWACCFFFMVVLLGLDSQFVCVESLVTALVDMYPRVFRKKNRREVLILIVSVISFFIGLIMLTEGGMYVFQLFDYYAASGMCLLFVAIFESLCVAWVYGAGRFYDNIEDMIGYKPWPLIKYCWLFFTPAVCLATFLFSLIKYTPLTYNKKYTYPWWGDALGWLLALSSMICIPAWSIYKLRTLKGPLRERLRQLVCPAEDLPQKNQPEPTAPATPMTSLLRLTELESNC

SIM-A9 cells = experiment: LC-MS determination of total MDA, SIM-A9; format: cell-based, mouse; settings: all time intervals
SH-SY5Y cells [2] = experiment: Intracellular RONS, DCFH-DA probe, SH-SY5Y; format: cell-based, human; settings: IC50, ½ IC50, ¼ IC50, 1, 4, 24 h
mGAT2 = target: T2, mGAT2 (Mus musculus, UniProt P31651); experiment: [3H]GABA uptake assay, mGAT2; format: cell-based
T2 sequence (P31651 1-614): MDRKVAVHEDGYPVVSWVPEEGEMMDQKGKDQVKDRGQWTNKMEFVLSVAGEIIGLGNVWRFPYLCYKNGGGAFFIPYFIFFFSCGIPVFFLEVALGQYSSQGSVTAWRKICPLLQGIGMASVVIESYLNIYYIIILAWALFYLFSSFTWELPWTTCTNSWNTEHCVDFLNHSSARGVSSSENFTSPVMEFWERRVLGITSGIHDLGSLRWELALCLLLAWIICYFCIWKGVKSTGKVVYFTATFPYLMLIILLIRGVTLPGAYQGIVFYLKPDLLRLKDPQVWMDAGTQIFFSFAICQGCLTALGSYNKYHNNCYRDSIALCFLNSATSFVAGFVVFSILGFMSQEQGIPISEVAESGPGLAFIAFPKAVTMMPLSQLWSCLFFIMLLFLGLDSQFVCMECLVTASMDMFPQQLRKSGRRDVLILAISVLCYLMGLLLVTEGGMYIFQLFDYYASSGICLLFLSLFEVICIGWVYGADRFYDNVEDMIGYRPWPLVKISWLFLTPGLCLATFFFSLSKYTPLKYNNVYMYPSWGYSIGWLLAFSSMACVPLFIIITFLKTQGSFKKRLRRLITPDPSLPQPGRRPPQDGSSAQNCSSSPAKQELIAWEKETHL

[3] = target: T3, human serotonin 5-HT6 receptor (Homo sapiens, UniProt P50406); experiment: cAMP 5-HT6 functional assay; format: cell-based
T3 construct: host or cells: 1321N1
T3 sequence (P50406 whole entry): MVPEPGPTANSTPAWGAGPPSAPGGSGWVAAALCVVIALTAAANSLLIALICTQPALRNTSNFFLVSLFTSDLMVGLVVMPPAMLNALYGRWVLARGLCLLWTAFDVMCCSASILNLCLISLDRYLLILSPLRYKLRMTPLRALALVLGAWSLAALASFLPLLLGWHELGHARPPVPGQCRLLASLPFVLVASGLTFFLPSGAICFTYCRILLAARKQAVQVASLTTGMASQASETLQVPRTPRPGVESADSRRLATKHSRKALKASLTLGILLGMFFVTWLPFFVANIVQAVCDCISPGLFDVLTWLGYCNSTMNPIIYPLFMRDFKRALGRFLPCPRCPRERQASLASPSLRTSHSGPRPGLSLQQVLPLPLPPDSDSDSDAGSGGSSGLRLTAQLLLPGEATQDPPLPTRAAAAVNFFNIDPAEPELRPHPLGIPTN
Method: Functional assays for 5-HT6 receptor
Test compounds were dissolved in dimethyl sulfoxide (DMSO) at a concentration of 10 mM.
Serial dilutions were prepared in a 96-well microplate in assay buffer, and 8 concentrations
were tested. For the 5-HT6, adenylyl cyclase activity was monitored using cryopreserved
cells were resuspended in stimulation buffer (HBSS, 5 mM HEPES, 0.5 IBMX, and 0.1%
BSA at pH 7.4) at 2x10^5 cells/ml. The same volume (10 μl) of cell suspension was added to
the tested compounds. Samples were loaded onto a white opaque half-area 96-well
reference agonist for the 5-HT6 receptor. The agonist and antagonist were added
simultaneously. Cell stimulation was performed for 30 minutes at room temperature. After
incubation, cAMP measurements were performed with homogeneous TR-FRET immunoassay
using the LANCE Ultra cAMP kit (PerkinElmer, USA). The volume of 10 μl of EucAMP
Tracer Working Solution and 10 μl of ULight-anti-cAMP Tracer Working Solution were
added, mixed, and incubated for 1 h. The TR-FRET signal was read on an EnVision
microplate reader (PerkinElmer, USA). IC 50 and EC 50 were determined by nonlinear
regression analysis using GraphPad Prism 9.0 software.

[4] = test system: mice treated with scopolamine; experiment: Passive avoidance (PA) task, scopolamine-induced amnesia; format: in vivo; settings: 10 mg/kg i.p., vs scopolamine-treated group
Method: Animals and housing conditions
In all pharmacodynamic in vivo experiments, except for the Barnes maze (BM) task, adult male Albino Swiss (CD-1) mice weighing between 18 and 22 g and purchased from the Animal Breeding Farm of the Faculty of Pharmacy, Jagiellonian University Medical College were used. In BM task, C57BL/6J mice of the same weight (Animalab, Poland) were used.
Animals were housed in cages (10 mice per cage) at a constant temperature of 22 ± 2 °C, humidity of 55 ± 10%, and a light/dark (12:12) cycle (lights on at 7 AM). Before the experiments, the animals had unlimited access to food and water. Specified conditions for the maintenance of mice were ensured throughout the experiments, including tree bedding (Transwior, Poland) and cage enrichment (tunnels, nesting material, wooden igloos, etc.). […]
doses for behavioral assays. Lower doses were also assessed if at least one of them was […]
On the first day, during the acquisition trial (a conditioning phase), the test compound 6, scopolamine, and vehicle were injected. […] The latency between opening the guillotine gate and the mouse entering the black compartment was measured for each mouse. On the next day, during the retention (drug-off) trial, the mice were placed again into the white compartment for a 30-s habituation period, and the latency to enter the black compartment was measured for each mouse. […]

O[C@H](CNCC1CC1)[C@H](Cc1ccccc1)NC1c2ccccc2-c2ccccc21 [Compound 6]
increase in intracellular level of MDA (SH-SY5Y cells [1]): no significant increase | IC50 (mGAT3): 7.41 ± 0.69 µM | increase in intracellular level of MDA (SIM-A9 cells): no significant increase | increase in intracellular RONS (SH-SY5Y cells [2]): no significant increase | IC50 (mGAT2): 10.7 µM | EC50 [3]: 2420 nM | Emax ([3]; read-out: 5-HT6 agonist mode E max % [10^-5 M]): 41% | Emax ([3]; read-out: 5-HT6 antagonist mode E max %): 3% | step-through latency in the retention trial [4]: significant differences were observed in the retention trial; also recorded: prolonged step‐thorough latency
